Source: patent US6603058B1, “Non-human animal model for obesity and uses thereof” (Oklahoma Medical Research Foundation, priority 1998, dated 2003)

Experiments:
Assay type in all cases: in vivo, mouse
[1] = Daily intraperitoneal MSH analog treatment of POMC homozygous mutant and wildtype female mice: body weight change and food intake; settings: for weight loss, share of excess weight: mutant female mice, 1 microgram (~1 nmol) i.p. daily; for weight loss in wildtype mice: wildtype non-obese littermates, peripheral (i.p.) daily treatment
Description: To initially test for the effect of peripheral melanocortins on weight change, we selected the stable agonist [Ac-Cys^4, D-Phe^7, Cys^10] αMSH (4-13)(described in Cody et al., 1985, J. Med. Chem. 28, 583-588; incorporated herein by reference in its entirety). Briefly, [Ac-Cys^4,D-Phe^7, Cys^10] α-MSH (4-13) amide was obtained from Peninsula Laboratories, CA. Lyophilized powder was dissolved in water at 1 mg/ml, which was diluted in PBS to 10 μg/mL. During the experiments, mice were maintained on a normal 12h/12h light/dark cycle with food and water ad libitum. Mice were fed standard laboratory rodent diet (#5001).
In order to see whether the α-MSH analog has an effect on food intake, we compared weight change and food intake in these mice for one week (see bars in FIGS. 4A and 4B) under MSH analog treatment and after MSH analog treatment was stopped (FIGS. 4C and 4D). During one week under MSH analog treatment mutant mice lost 0.5 g, while wildtype littermates gained 0.3 g; the food intake during this time was equivalent in both groups (20.7 g in wildtypes, and 22.7 g in mutants).

[2] = Weight change and food intake in wildtype and POMC null mutant mice under standard diet, standard diet plus MSH analog, or high fat diet; settings: for food intake, standard diet v. standard diet & MSH analog treatment / weight change, standard diet v. standard diet & MSH analog treatment: MSH analog i.p. 1 or 2 μg once daily
Description: P values were determined by ANOVA. If the major component of weight regulation through the melanocortinergic pathway was the regulation of feeding behavior, the observed changes in body weight in POMC null mutant mice should be paralleled by a similar pattern in food uptake. This, however, was not observed (FIGS. 5B and 5D and Table 1).

[3] = Coat pigmentation of mice treated with MSH for two weeks
Excerpt: An effect of MSH could also be seen on coat pigmentation. […] Yellow coat pigmentation gradually reappeared after MSH treatment was terminated (data not shown).

[4] = both on standard diet & MSH analog treatment

## [Ac-Cys^4,D-Phe^7, Cys^10] α-MSH (4-13) amide [MSH analog]
[1]; by 2 weeks
  weight loss, share of excess weight: 46 % of excess weight
[1]; within one week
  weight loss, share of excess weight: 38 % of excess weight
[1]; mutant mice
  body weight gained in one week after MSH analog treatment had been stopped for two weeks: 1.7 g
  food intake during one week under MSH analog treatment: 22.7 g
  food intake in one week after MSH analog treatment had been stopped for two weeks: 35.7 g
  time after stop of MSH injections until mutant mice started to gain weight: about 10 days
[1]; mutant mice treated peripherally
  loss of excess weight after two weeks (summary statement): over 40 % of excess weight
[1]; mutant mice, second week of treatment
  body weight lost during one week under MSH analog treatment: 0.5 g
[1]; one week, p<0.005
  difference in food intake, mutants over wildtypes, after treatment stopped for two weeks: 11.5 g
[1]; wildtype littermates
  body weight gained in one week after MSH analog treatment had been stopped for two weeks: 0.3 g
[1]; wildtype littermates, second week of treatment
  body weight gained during one week under MSH analog treatment: 0.3 g
[1]; wildtype mice
  food intake during one week under MSH analog treatment: 20.7 g
  food intake in one week after MSH analog treatment had been stopped for two weeks: 24.2 g
[1]; listed as MSH-agonist
  weight loss in wildtype mice: no significant weight loss
[1]; listed as stable α-MSH agonist
  weight loss in wildtype mice: did not lose significant weight
[2]; [4]
  food intake, wildtype v. mutant: ↑
  weight change, wildtype v. mutant: ↓
[2]; mutant mice
  food intake, standard diet v. standard diet & MSH analog treatment: decreases food intake and ↓
  weight change, standard diet v. standard diet & MSH analog treatment: lose excess weight and ↓
[2]; wildtype mice
  food intake, standard diet v. standard diet & MSH analog treatment: decreases food intake and ↓
  weight change, standard diet v. standard diet & MSH analog treatment: ←→
[3]
  effect on coat pigmentation: lost their yellowish tinge
